Tested on: S1M180 xenograft
Source text: (A) S1 xenograft. (B) S1M180 xenograft. There were 3 treatment groups in S1 and S1M180 xenograft model. Treatments were given as indicated by an arrow (↑). % of tumor volume reduction was compared among different treatment groups on days 55 and 71. a, b, and c = mean tumor volume of solvent control, topotecan alone, and combination treatment groups on day 55, respectively. d and e = mean tumor volume of topotecan alone and combination treatment groups on day 71. (C) Tumor weight of S1M180-bearing mice on termination day. (D) % change of tumor volume and tumor doubling time of S1M180 xenograft were determined on days 55 and 71. […] Number of animal death was monitored during the efficacy study. (E) Body weight of S1M180-bearing mice. (F) To measure plasma and intratumor level of topotecan, S1M180-bearing mice were administered with 45 mg/kg (I.P.) of Ac15(Az8)2 one hour prior to 6 mg/kg (I.P.) of topotecan administration. Five hours after topotecan administration, the mice were sacrificed. Plasma and tumor were collected for analyzing topotecan level using UPLC–MS/MS. Student’s unpaired two-tailed t-test was performed between combination group and topotecan alone group or solvent control group as indicated (* p < 0.05, ** p < 0.01, *** p < 0.001).
Ten million of S1M180 cells were injected subcutaneously into Balb/c nu nu mice (Beijing Vital River Laboratory Animal Technology Co., Ltd., Beijing, China). Mice with solid tumors formed were sacrificed. The tumor was removed and cut into 1 mm^3 and xenografted subcutaneously onto another Balb/c nu nu mouse for passage or efficacy study. Treatment of nude mice started when the xenograft reached 100–150 mm^3. The mice were randomized into 3 groups (n = 7 mice per group). Group (1) was treated with Ac15(Az8)2 solvent (I.P.) and topotecan solvent (I.P.), group (2) was treated with Ac15(Az8)2 solvent (I.P.) and topotecan (2 mg/kg, I.P.), group (3) was treated with Ac15(Az8)2 (45 mg/kg, I.P.) and topotecan (2 mg/kg, I.P.). The formulation used was the same as that of the pharmacokinetic study. S1M180-bearing nude mice were treated for 4 rounds. In each round, they were treated once every two days 6 times, allowed to rest for 7 days, and treated again. […] The body weights of mice were monitored throughout the experiment. Tumor dimensions were measured by an electronic caliper, and the tumor volume was calculated as reported previously.

[1] = 45 mg/kg Ac15(Az8)2 + 2 mg/kg topotecan

For `COC(=O)c1cccc(COc2c(-c3ccc(OCCOCCn4cc(CN(Cc5ccccc5)Cc5cn(CCOCCOc6ccc(-c7oc8ccccc8c(=O)c7OCc7cccc(C(=O)OC)c7)cc6)nn5)nn4)cc3)oc3ccccc3c2=O)c1` [Ac15(Az8)2], the “Lengthening of tumor doubling time by combination treatment vs solvent group” value [1] was 4.6 days, the “Lengthening of tumor doubling time by combination treatment vs topotecan alone” value [1] was 1.8 days and the “Reduction of tumor weight by combination treatment vs solvent group” value (termination day, p < 0.001) was 1.9 fold. The “Reduction of tumor weight by combination treatment vs topotecan alone” value (termination day, p < 0.01) was 1.6 fold.

Source: paper PMC9653733, “Characterization of a Potent, Selective, and Safe Inhibitor, Ac15(Az8)2, in Reversing Multidrug Resistance Mediated by Breast Cancer Resistance Protein (BCRP/ABCG2)” (International Journal of Molecular Sciences, 2022)
